Values of other authors in patent publication US20250340540A1, “Crystal Forms Of HS378 And Preparation Method Therefor” (priority 2022, published 2025).

System: novel coronavirus
Conditions: mouse, in vivo; cited from earlier work

CC(C)(C)[C@H](NC(=O)C(F)(F)F)C(=O)N1C[C@H]2[C@@H]([C@H]1C(=O)N[C@H](C#N)C[C@@H]1CCNC1=O)C2(C)C [HS378, (1R, 2S, 5S)-N-{(1S)-1-cyano-2-[(3S)-2-oxopyrrolidin-3-yl]-ethyl}-6,6-dimethyl-3-[3-methyl-N-(trifluoroacetyl)-L-valyl]-3-azabicyclo [3.1.0]hexane-2-carboxamide]
Oral activity: Oral activity was demonstrated
